According to patent US20160228452A1, “TREATMENT OF METABOLIC DISEASES BY INHIBTION OF HTR2A OR HTR3” (Korea Advanced Institute of Science and Technology, priority 2014, published 2016):
Entries after “also recorded” stand apart in the source; their conditions may differ.

Legend:
Htr3 [1] = target: T1, Htr3 (Mus musculus, UniProt P23979); assay: Western blot for phosphorylation of PKA pathway components in IBAs; type: cell-based; settings: IBAs pretreated with ondansetron, in the presence of β3-adrenergic receptor agonist
T1 construct: we explored the direct actions of Htr3 on BAT using immortalized brown adipocytes (IBAs); endogenous in cells; host or cells: differentiated immortalized brown adipocytes (IBAs)
T1 sequence (P23979 24-489): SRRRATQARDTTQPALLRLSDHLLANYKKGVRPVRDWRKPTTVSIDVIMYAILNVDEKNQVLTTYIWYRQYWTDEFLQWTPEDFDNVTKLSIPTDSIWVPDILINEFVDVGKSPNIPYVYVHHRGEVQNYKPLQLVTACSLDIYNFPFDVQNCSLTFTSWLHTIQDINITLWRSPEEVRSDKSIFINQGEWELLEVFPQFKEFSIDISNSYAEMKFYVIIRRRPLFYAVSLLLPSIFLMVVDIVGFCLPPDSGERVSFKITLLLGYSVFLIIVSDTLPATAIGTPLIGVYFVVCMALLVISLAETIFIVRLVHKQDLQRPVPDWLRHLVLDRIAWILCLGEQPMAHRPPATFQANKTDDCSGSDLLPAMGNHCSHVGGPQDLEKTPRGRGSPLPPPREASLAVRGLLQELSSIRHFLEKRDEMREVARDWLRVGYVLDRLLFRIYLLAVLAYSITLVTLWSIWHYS
T1 sequence (Q9JHJ5 22-437 partner): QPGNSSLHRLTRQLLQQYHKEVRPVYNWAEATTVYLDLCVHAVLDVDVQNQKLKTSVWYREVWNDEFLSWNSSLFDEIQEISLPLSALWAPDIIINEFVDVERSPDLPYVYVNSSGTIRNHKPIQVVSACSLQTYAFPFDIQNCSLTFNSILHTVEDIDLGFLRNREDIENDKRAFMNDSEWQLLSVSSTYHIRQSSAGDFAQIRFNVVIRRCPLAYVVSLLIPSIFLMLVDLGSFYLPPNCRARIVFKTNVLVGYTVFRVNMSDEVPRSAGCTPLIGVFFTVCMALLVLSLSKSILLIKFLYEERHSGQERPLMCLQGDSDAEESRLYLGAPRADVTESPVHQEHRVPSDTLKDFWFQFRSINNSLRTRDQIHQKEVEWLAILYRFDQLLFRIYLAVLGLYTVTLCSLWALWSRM
Method: (§1) IBAs were cultured in DMEM supplemented with 10% FBS and P/S in a humidified atmosphere of 5% CO2 at 37° C.^32. After reaching 95% confluence, the cells were induced to differentiate using DMEM with 10% FBS, 0.5 μg/mL insulin, 1 nM T3, 0.125 mM indomethacin, 2 μg/mL dexamethasone, 0.5 μM IBMX and P/S (day 0). After two days, the medium was replaced with DMEM supplemented with 10% FBS, 0.5 μg/mL insulin, 1 nM T3 and P/S (day 2), and it was changed every two days from days 4 to 8. We confirmed that these cell lines are free from Mycoplasma infection.
Whole-cell lysates were extracted by incubating cells in RIPA buffer (25 mM Tris-HCl pH 7.6, 150 mM NaCl, 1% NP-40, 1% sodium deoxycholate, 0.1% SDS) plus protease inhibitors (Roche). Supernatant was collected following a brief centrifuge, and protein concentrations in the supernatant were determined using the BCA Protein Assay Kit (Thermo Scientific, Rockford, Ill., USA). The cell lysates were then mixed with equal volumes of 2× Laemmli buffer (4% SDS, 20% glycerol, 10% 2-mercaptoethanol, 0.01% bromophenol blue, and 120 mM Tris-HCl, pH 6.8) and boiled for 5 min at 95° C. Then, the protein samples were separated by SDS-PAGE and transferred to a PVDF membrane (Millipore). […]

Htr3 [2] = target: T1, Htr3; assay: OCR assay (Seahorse XF24) in IBAs; type: cell-based; settings: fully differentiated IBAs pretreated 30 min, then β3 agonist CL-316243
Method: IBAs were cultured in DMEM supplemented with 10% FBS and P/S in a humidified atmosphere of 5% CO2 at 37° C.^32. After reaching 95% confluence, the cells were induced to differentiate using DMEM with 10% FBS, 0.5 μg/mL insulin, 1 nM T3, 0.125 mM indomethacin, 2 μg/mL dexamethasone, 0.5 μM IBMX and P/S (day 0). After two days, the medium was replaced with DMEM supplemented with 10% FBS, 0.5 μg/mL insulin, 1 nM T3 and P/S (day 2), and it was changed every two days from days 4 to 8. […] The OCRs of the cells were measured using a Seahorse XF analyzer (Seahorse Bioscience, Billerica, Mass., USA). After seeding IBAs on an XF-24 plate, the cells were incubated and differentiated using the protocol described above. Fully differentiated IBAs were pre-treated with PBS and ondansetron for 30 min. Then, the IBAs were treated with the β3 agonist (CL-316243) and the mitochondrial inhibitors oligomycin and rotenone/antimycin. The OCRs were calculated and recorded by a sensor cartridge and the Seahorse XF-24 software.

Htr3 [3] = target: T1, Htr3; assay: cAMP assay (competitive ELISA) in immortalized brown adipocytes; type: cell-based
Method: as §1
Differentiated IBAs were treated with 1 uM ondansetron or 100 nM m-CPBG or 1 uM CL-316243 for 15 min. 1 uM […] was used as a positive control. The cAMP competitive ELISA (Promega) was performed according to the manufacturer's instruction. Briefly, cAMP was extracted by adding 0.1 M HCl with 0.5% triton X-100 to the cells. After centrifugation at 600 g for 10 min, the supernatant was used for the determination of cAMP levels by competitive cAMP ELISA.

Htr3 [4] = target: T1, Htr3; assay: Real-time PCR of thermogenic genes in IBAs; type: cell-based; settings: 2 h after ondansetron treatment
Method: as §1
(§2) Total RNA was extracted from the mouse tissues or cell lines using TRIzol reagent (Invitrogen) according to the manufacturer's protocol. After TURBO DNase (Invitrogen) treatment, 2 μg of total RNA was used to generate complementary DNA with Superscript III reverse transcriptase (Invitrogen). To analyze gene expression, real-time PCR was performed with a ViiA 7 Real-Time PCR system (Applied Biosystems) and the Power SYBR Green PCR master mix (Applied Biosystems). Relative quantification was based on the ddCt method, and ActB was used as an endogenous control (internal control).

[5] = tested on: SV cells from Tph1 FKO mice; assay: Ex vivo differentiation of SVF from BAT of Tph1 FKO mice, Ucp1 mRNA; type: cell-based; settings: after 8 days of differentiation
Method: The stromal vascular fraction of epididymal, inguinal and BAT from 6- to 7-week-old mice was separated by collagenase digestion. Briefly, the adipose tissues were dissected, minced and digested with 0.2% collagenase A (Roche) in Hank's balanced salts solution (Sigma) for 45 min at 37° C. with constant shaking. Mature adipocytes and connective tissues were separated from the cell pellet by centrifugation at 800×g for 10 min at 4° C. The cell pellet was then suspended with RBC lysis buffer (Sigma) and filtered through a 40-μm mesh filter (BD bioscience). The pelleted stromal vascular cells (SVCs) were re-suspended in DMEM containing 10% FBS and seeded in 6-well plates for adipogenic differentiation.
as §2

Htr2a [6] = target: T2, Htr2a (Mus musculus, UniProt P35363); assay: Glycerol release assay (lipolysis) in 3T3-L1 mature adipocytes; type: cell-based, murine; settings: 24 h
T2 sequence (P35363 whole entry): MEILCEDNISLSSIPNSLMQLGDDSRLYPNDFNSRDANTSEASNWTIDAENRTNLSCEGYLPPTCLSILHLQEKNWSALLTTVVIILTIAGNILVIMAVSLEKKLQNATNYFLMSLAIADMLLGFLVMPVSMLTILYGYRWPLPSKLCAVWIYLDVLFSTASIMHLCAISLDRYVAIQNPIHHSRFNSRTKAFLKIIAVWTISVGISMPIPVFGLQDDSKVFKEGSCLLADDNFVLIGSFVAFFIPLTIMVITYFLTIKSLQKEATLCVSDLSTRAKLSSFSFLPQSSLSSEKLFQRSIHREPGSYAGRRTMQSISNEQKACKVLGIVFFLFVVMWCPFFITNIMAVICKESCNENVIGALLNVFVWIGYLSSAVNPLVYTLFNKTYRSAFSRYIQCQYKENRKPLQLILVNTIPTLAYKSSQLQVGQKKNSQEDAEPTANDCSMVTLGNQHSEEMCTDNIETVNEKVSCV
Method: (§3) Murine 3T3-L1 cells (American Type Culture Collection) were cultured in DMEM supplemented with 10% fetal calf serum and 100 μg/mL P/S in a humidified atmosphere of 5% CO2 at 37° C. Two days after reaching confluence, the cells were induced to differentiate using medium supplemented with 0.5 mM IBMX, […] and 1 μM dexamethasone (day 0). After two days, the medium was replaced with DMEM supplemented with […] in 10% FBS and P/S (day 2), and it was changed every two days from days 4 to 8.
Lipolysis was measured as the rate of glycerol release using a free glycerol reagent (Sigma) following the manufacturer's protocol. Briefly, fully differentiated 3T3-L1 adipocytes in a 24-well plate were incubated with 5-HT or DOI in Krebs Ringer phosphate buffer (136 mM NaCl, 4.7 mM KCl, 10 mM NaPO4, 0.9 mM MgSO4, and 0.9 mM CaCl2) containing 4% fatty acid-free bovine serum albumin (Sigma) for 24 h. Isoproterenol was used as a positive control. After incubation, 10 μL of the cell culture supernatant was mixed with 0.8 mL of the free glycerol reagent, and the mixture was then incubated at 37° C. for 5 min. The absorbance of the sample was determined at 540 nm using a spectrophotometer (DU730 Life Science UV/Vis, Beckman Coulter, Indianapolis, Ind., USA). The amount of released glycerol was expressed relative to the cellular protein content.

Htr2a [7] = target: T2, Htr2a; assay: Real-time PCR of lipogenic genes in 3T3-L1 mature adipocytes; type: cell-based, murine
Method: as §3, §2

Htr2a [8] = target: T2, Htr2a; assay: Oil Red O staining of 3T3-L1 adipocytes; type: cell-based, murine; settings: treatment during differentiation, absorbance at 520 nm
Method: Murine 3T3-L1 cells (American Type Culture Collection) were cultured in DMEM supplemented with 10% fetal calf serum and 100 μg/mL P/S in a humidified atmosphere of 5% CO2 at 37° C. Two days after reaching confluence, the cells were induced to differentiate using medium supplemented with 0.5 mM IBMX, 1 mg/mL insulin and 1 μM dexamethasone (day 0). After two days, the medium was replaced with DMEM supplemented with 1 mg/mL insulin in 10% FBS and P/S (day 2), and it was changed every two days from days 4 to 8. After full differentiation (day 8), 3T3-L1 adipocytes were fixed with 3.7% (w/v) formaldehyde in PBS for 15 min at room temperature and then washed three times with PBS. Then, the cells were stained with filtered Oil Red 0 solution (1.5 mg/mL 60% (v/v) isopropanol) for 30 min and then rinsed twice with distilled water. To quantify the amount of Oil Red 0 staining, the cells were eluted with 100% isopropranol for 10 min, and the absorbance densities of the extracts were measured at 520 nm using a VersaMax microplate reader (Molecular Devices, Sunnyvale, Calif., USA).

Cc1nccn1CC1CCc2c(c3ccccc3n2C)C1=O (racemic) [ondansetron, (RS)-9-methyl-3-[(2-methyl-1H-imidazol-1-yl)methyl]-2,3-dihydro-1H-carbazol-4(9H)-one]
phosphorylation of HSL and PKA substrate (PKA pathway components) after β3AR stimulation (Htr3 [1]): increased phosphorylation
oxygen consumption rate (OCR) (Htr3 [2]): increased the OCR synergistically; also recorded: increased the oxygen consumption rate
cAMP level after β3AR stimulation (Htr3 [3]; IBAs pretreated with 1 uM ondansetron, in the presence of β3-adrenergic receptor agonist CL 316243): increased cAMP levels
cAMP level in the absence of β3AR agonist (Htr3 [3]; IBAs, 1 uM ondansetron or 100 nM m-CPBG, 15 min): did not affect cAMP levels
mRNA expression of thermogenic genes (Ucp1, Ppargc1a) (Htr3 [4]): increased

NCCc1c[nH]c2ccc(O)cc12 [5-HT, 5-hydroxytryptamine]
Ucp1 mRNA level [5]: abrogated; also recorded: suppressed
glycerol release (lipolysis) (Htr2a [6]): suppressed lipolysis; also recorded: reduced the glycerol release

COc1cc(CC(C)N)c(OC)cc1I (stereo not shown) [DOI, 2,5-dimethoxy-4-iodoamphetamine]
mRNA levels of lipogenic genes (Htr2a [7]): increased
glycerol release (lipolysis) (Htr2a [6]): suppressed lipolysis; also recorded: reduced the glycerol release

O=C(c1ccc(F)cc1)C1CCN(CCn2c(=O)[nH]c3ccccc3c2=O)CC1 [ketanserin, 3-{2-[4-(4-fluorobenzoyl)piperidin-1-yl]ethyl}quinazoline-2,4(1H,3H)-dione]
lipogenesis (optical density of Oil Red O extract) (Htr2a [8]): decreased lipogenesis; also recorded: reduced the optical density of the extract
